pIC50: −log10 of the molar value.
Assays:
[1] = molecular target: T1, Sodium/glucose cotransporter 1 (Homo sapiens, UniProt P13866); assay: Inhibitory Activity Assay
T1 sequence (P13866 whole entry): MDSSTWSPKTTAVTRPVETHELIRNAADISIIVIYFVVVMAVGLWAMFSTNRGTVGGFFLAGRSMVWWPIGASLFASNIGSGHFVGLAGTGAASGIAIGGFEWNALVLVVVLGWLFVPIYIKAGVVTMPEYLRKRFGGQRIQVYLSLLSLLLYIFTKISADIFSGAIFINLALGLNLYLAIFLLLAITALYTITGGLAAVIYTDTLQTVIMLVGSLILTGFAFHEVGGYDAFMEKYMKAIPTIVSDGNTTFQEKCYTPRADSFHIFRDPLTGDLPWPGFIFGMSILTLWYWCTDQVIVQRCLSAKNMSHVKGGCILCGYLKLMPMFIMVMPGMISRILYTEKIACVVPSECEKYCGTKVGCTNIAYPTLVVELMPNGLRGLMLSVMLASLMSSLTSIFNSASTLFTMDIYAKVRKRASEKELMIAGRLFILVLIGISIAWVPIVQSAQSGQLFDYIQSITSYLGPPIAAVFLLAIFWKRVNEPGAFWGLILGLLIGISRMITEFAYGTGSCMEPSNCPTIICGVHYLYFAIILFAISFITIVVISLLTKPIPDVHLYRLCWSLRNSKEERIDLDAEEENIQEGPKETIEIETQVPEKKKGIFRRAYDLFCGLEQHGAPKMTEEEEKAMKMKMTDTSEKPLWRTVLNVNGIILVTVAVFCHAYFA
Method: (§1) The following method was used to determine the inhibitory activity of the compounds of the present invention on SGLT1 and SGLT2. The experimental method is summarized as follows:SGLT1 and SGLT2 transiently transferred HEK293 cells were seeded in a 96-well plate. The density of the cells was 1-1.5×104. The cells were cultured at 37° C. and 5% CO2 for 48 hours, and then washed twice with 200 μL sodium-free buffer. 90 μL sodium-containing buffer of the test compound at different concentrations was added to the well. Each test compound was repeated in three wells for each concentration. The cells were cultured at 37° C. for 15 minutes, then 10 μL (in number 0.1 μCi [14C]) Methyl α-D-glucopyranoside was added to each well of the 96-well plate. The cells were further cultured at 37° C. for 2 hours, then the supernatant was discarded. The cells were washed twice with pre-chilled sodium-free buffer and then dissolved in 100 μL NaOH (200 mM). 100 μL scintillation solution was added, and mixed well. Scintiloscope was used for the quantitative detection of 14C.

[2] = molecular target: T2, Sodium/glucose cotransporter 2 (Homo sapiens, UniProt P31639); assay: Inhibitory Activity Assay
T2 sequence (P31639 whole entry): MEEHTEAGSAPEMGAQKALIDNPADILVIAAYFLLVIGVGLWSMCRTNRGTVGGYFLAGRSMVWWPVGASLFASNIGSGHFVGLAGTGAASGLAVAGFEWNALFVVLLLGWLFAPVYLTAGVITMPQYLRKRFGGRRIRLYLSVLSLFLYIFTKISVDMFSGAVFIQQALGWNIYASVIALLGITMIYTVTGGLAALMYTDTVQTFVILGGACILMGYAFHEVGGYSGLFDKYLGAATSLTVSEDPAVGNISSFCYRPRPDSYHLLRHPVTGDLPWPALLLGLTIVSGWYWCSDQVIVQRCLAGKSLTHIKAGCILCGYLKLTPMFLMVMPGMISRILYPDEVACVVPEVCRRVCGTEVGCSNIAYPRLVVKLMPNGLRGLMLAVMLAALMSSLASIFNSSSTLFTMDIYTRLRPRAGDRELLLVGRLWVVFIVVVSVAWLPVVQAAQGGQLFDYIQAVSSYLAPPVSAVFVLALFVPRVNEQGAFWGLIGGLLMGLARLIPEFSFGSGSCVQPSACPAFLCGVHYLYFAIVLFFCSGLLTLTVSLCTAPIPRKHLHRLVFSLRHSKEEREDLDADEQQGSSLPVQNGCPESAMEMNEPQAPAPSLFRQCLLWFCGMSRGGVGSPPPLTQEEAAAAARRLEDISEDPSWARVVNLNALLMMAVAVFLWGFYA
Method: as §1

pIC50 [1]	pIC50 [2]	Structure (SMILES)
7.00	8.59	Cc1cc(O)c([C@@H]2S[C@H](CO)[C@@H](O)[C@H](O)[C@H]2O)cc1Cc1ccc2c(c1)OCCO2 [US10011627, 6]
6.52	8.37	OC[C@H]1S[C@@H](c2ccc(C3CC3)c(Cc3ccc4c(c3)OCCO4)c2)[C@H](O)[C@@H](O)[C@@H]1O [US10011627, 5]
